We go through 8 compounds from PubChem BioAssay (NCI).

Test systems include 786-0 renal; HT29 colon; K-562 leukemia; MDA-MB-435; NCI-H460 lung; NCI/ADR-RES ovarian; OVCAR-3 ovarian; OVCAR-8 ovarian; PC-3 prostate; RPMI-8226 leukemia; RXF 393 renal; SF-268 CNS; SF-539 CNS; SK-MEL-5 melanoma; SN12C renal; SNB-19 CNS; TK-10 renal; UACC-62 melanoma; EKVX NSCLC; NCI-H522 lung.
Common to all, as to assay: NCI anticancer screen, dose series, 48 h

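Five compound concentrations were applied to cells in 96-well plates for 48 hours; endpoints were derived by simple linear interpolation of the resulting dose-response curve. The concentration for full growth arrest is given as TGI.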

Turning to `C/C1=C\[C@@H](C)C[C@@H](C)OC(=O)[C@@H](C)NC(=O)[C@H](Cc2ccc(O)c(Br)c2)N(C)C(=O)CNC(=O)[C@H](C)C1`, the TGI was 5.84 µM in the test with 786-0 renal; greater than 100 µM in the test on HT29 colon; greater than 100 µM in the test with K-562 leukemia; greater than 44.3 µM in the test on MDA-MB-435; greater than 69.1 µM with NCI-H460 lung; greater than 57 µM in the test with NCI/ADR-RES ovarian. The TGI in the test with OVCAR-3 ovarian is 0.0243 µM; in the test on OVCAR-8 ovarian, greater than 40.4 µM; in the test on PC-3 prostate, 5.04 µM; in the test with RPMI-8226 leukemia, 56.1 µM; in the test with RXF 393 renal it was less than 0.0429 µM; in the test with SF-268 CNS it was 1.89 µM. The TGI is 0.677 µM with SF-539 CNS; greater than 52.8 µM in the test with SK-MEL-5 melanoma; greater than 100 µM in the test on SN12C renal; greater than 100 µM in the test with SNB-19 CNS; 0.26 µM in the test on TK-10 renal; greater than 55.1 µM with UACC-62 melanoma.

In the case of `CCCCCCCCCCCCCC(=O)OCC(CCS(=O)(=O)O[C@H]1CC[C@@]2(C)C(=CC[C@@H]3C2CC[C@]2(C)C(=O)CCC32)C1)OC(=O)CCCCCCCCCCCCC` (stereo partly drawn), the TGI with 786-0 renal, in the test with EKVX NSCLC, with HT29 colon, with K-562 leukemia, with MDA-MB-435 and with NCI-H460 lung was greater than 100 µM each time. The TGI with NCI/ADR-RES ovarian, in the test with OVCAR-3 ovarian, with PC-3 prostate, in the test with RPMI-8226 leukemia, in the test on RXF 393 renal and in the test with SF-268 CNS was greater than 100 µM each time. For the same compound, the TGI in the test on SF-539 CNS, with SK-MEL-5 melanoma, in the test with SN12C renal, with SNB-19 CNS, in the test with TK-10 renal and with UACC-62 melanoma was greater than 100 µM throughout.

For the compound `COc1ccc(/C(=N/OCCCC(=O)O)c2cccs2)cc1`, the TGI in the test with 786-0 renal, with EKVX NSCLC, in the test with HT29 colon, in the test with K-562 leukemia, with MDA-MB-435 and in the test on NCI-H460 lung was greater than 100 µM in each case. In addition, the TGI in the test on NCI/ADR-RES ovarian, in the test on OVCAR-3 ovarian, with OVCAR-8 ovarian, in the test with PC-3 prostate, in the test on RPMI-8226 leukemia and in the test on RXF 393 renal was greater than 100 µM in each case. In addition, the TGI in the test with SF-268 CNS, in the test with SF-539 CNS, in the test with SK-MEL-5 melanoma, in the test with SN12C renal, with SNB-19 CNS and with TK-10 renal was greater than 100 µM in each case. In addition, the TGI in the test with UACC-62 melanoma was greater than 100 µM.

As for `Nc1nncc2n[nH]nc12`, the TGI in the test on 786-0 renal, with EKVX NSCLC, in the test with HT29 colon, in the test with MDA-MB-435, in the test on NCI-H460 lung and in the test on NCI/ADR-RES ovarian was greater than 100 µM throughout. The TGI with OVCAR-3 ovarian, in the test on OVCAR-8 ovarian, with PC-3 prostate, in the test with RPMI-8226 leukemia, with RXF 393 renal and in the test with SF-268 CNS was greater than 100 µM in each case. Moreover, the TGI in the test on SF-539 CNS was greater than 100 µM; with SK-MEL-5 melanoma, 30.7 µM; with SN12C renal, greater than 100 µM; with SNB-19 CNS, greater than 100 µM; in the test with TK-10 renal it was greater than 100 µM; with UACC-62 melanoma it was greater than 100 µM.

`CC(=O)OCCCCn1nncc1Cn1ccc(=O)n(Cc2cnnn2CCCCOC(C)=O)c1=O`: the TGI with 786-0 renal, in the test on EKVX NSCLC, with MDA-MB-435, in the test on NCI/ADR-RES ovarian, with OVCAR-3 ovarian and in the test with OVCAR-8 ovarian was greater than 100 µM in each case. For the same compound, the TGI in the test with PC-3 prostate, in the test on RPMI-8226 leukemia, with RXF 393 renal, in the test with SF-268 CNS, in the test on SF-539 CNS and with SK-MEL-5 melanoma was greater than 100 µM in each case. Besides, the TGI in the test on SN12C renal, with SNB-19 CNS and in the test with TK-10 renal was greater than 100 µM in each case.

With `O=C1/C(=C/c2ccc([N+](=O)[O-])cc2)CCCc2ccccc21`, the TGI in the test on 786-0 renal, in the test with EKVX NSCLC, with HT29 colon, in the test with K-562 leukemia, in the test on MDA-MB-435 and in the test on NCI-H460 lung was greater than 100 µM throughout. Besides, the TGI with NCI-H522 lung, in the test with NCI/ADR-RES ovarian, in the test with OVCAR-3 ovarian, in the test with OVCAR-8 ovarian, in the test on PC-3 prostate and in the test on RPMI-8226 leukemia was greater than 100 µM throughout. Besides, the TGI in the test on SF-268 CNS, in the test on SF-539 CNS, in the test with SN12C renal, with SNB-19 CNS, with TK-10 renal and in the test on UACC-62 melanoma was greater than 100 µM each time.

Turning to `CN1/C(=C\N=O)C(C)(C)N(O)C1(C)C`, the TGI in the test with 786-0 renal, in the test with EKVX NSCLC, with HT29 colon, with K-562 leukemia, with MDA-MB-435 and in the test on NCI-H460 lung was greater than 100 µM in each case. Also, the TGI in the test on NCI-H522 lung, in the test on NCI/ADR-RES ovarian, with OVCAR-3 ovarian, in the test on OVCAR-8 ovarian, in the test with PC-3 prostate and in the test with RPMI-8226 leukemia was greater than 100 µM throughout. Besides, the TGI in the test on SF-268 CNS, with SF-539 CNS, in the test with SK-MEL-5 melanoma, in the test on SN12C renal, in the test on SNB-19 CNS and with TK-10 renal was greater than 100 µM throughout. In the test on UACC-62 melanoma, this compound yielded a TGI greater than 100 µM.

As to `C1=C2C3=[N+](CCCC3)CC2Cc2sccc21` (stereo not drawn), the TGI with 786-0 renal, with EKVX NSCLC, in the test on HT29 colon, in the test on K-562 leukemia, with MDA-MB-435 and in the test on NCI-H460 lung was greater than 100 µM throughout. The TGI with NCI-H522 lung, in the test with NCI/ADR-RES ovarian, with OVCAR-3 ovarian, in the test with OVCAR-8 ovarian, with PC-3 prostate and in the test on RXF 393 renal was greater than 100 µM in each case. The TGI with SF-268 CNS, with SK-MEL-5 melanoma, in the test on SN12C renal, with SNB-19 CNS, in the test with TK-10 renal and in the test on UACC-62 melanoma was greater than 100 µM throughout.
